Data on seven molecules can be found in ChEMBL document CHEMBL3991601, “The target landscape of clinical kinase drugs” (Science, 2017).

The source made the active and inactive calls. Rule as the data show it, for most assays here: actives have a measured Kd and inactives only a lower limit.

Targets include Aurora kinase B (Homo sapiens, UniProt Q96GD4); Actin-related protein 2 (Homo sapiens, UniProt P61160); LIM domain kinase 2 (Homo sapiens, UniProt P53671).
Test [1] concerns the target G protein-coupled receptor kinase 6 (Homo sapiens, UniProt P43250).
Test [2] has as its target GTP-binding nuclear protein Ran (Homo sapiens, UniProt P62826).
The target in test [3] is Maternal embryonic leucine zipper kinase (Homo sapiens, UniProt Q14680).
For test [4], the target named is Calcium/calmodulin-dependent protein kinase type II subunit delta (Homo sapiens, UniProt Q13557).
Test [5] addresses 26S proteasome regulatory subunit 6B (Homo sapiens, UniProt P43686).
Test [6] has as its target Serine/threonine-protein kinase N1 (Homo sapiens, UniProt Q16512).
Test [7] addresses T1, Serine/threonine-protein kinase PLK4 (Homo sapiens, UniProt O00444).
T1 sequence (O00444 whole entry): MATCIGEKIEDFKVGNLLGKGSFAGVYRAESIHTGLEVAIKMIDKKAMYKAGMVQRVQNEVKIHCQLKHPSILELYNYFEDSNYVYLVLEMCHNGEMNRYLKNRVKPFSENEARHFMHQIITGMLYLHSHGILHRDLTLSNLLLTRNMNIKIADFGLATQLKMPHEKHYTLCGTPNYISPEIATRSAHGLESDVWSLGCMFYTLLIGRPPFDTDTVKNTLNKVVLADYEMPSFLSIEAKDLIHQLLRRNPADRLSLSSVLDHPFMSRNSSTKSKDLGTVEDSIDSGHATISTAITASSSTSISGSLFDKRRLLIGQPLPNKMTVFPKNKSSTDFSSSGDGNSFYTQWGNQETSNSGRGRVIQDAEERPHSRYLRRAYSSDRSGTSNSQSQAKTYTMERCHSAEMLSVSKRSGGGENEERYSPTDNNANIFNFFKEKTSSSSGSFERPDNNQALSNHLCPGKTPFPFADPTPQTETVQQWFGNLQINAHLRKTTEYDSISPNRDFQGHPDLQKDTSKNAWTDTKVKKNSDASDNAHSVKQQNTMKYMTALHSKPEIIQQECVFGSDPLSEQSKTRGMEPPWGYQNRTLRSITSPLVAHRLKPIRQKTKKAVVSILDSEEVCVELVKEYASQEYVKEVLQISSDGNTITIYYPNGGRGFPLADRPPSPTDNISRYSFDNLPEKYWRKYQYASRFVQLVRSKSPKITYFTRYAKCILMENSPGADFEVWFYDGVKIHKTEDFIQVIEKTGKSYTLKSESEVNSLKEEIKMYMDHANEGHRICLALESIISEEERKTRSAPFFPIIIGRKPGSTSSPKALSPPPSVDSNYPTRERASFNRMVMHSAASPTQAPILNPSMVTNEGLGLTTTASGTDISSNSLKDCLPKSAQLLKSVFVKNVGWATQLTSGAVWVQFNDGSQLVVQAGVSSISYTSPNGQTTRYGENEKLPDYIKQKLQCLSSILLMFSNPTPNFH

Test [8] deals with Tyrosine-protein kinase JAK1 (Homo sapiens, UniProt P23458).
For test [9], the target named is Serine/threonine-protein kinase MRCK beta (Homo sapiens, UniProt Q9Y5S2).
In test [10] the target is Tyrosine-protein kinase ABL1 (Homo sapiens, UniProt P00519).
Test [11] has as its target Ribosomal protein S6 kinase alpha-1 (Homo sapiens, UniProt Q15418).
The target in test [12] is Guanine nucleotide-binding protein G(i) subunit alpha-2 (Homo sapiens, UniProt P04899).
Test [13] concerns the target T2, Ferrochelatase, mitochondrial (Homo sapiens, UniProt P22830).
T2 sequence (P22830 whole entry): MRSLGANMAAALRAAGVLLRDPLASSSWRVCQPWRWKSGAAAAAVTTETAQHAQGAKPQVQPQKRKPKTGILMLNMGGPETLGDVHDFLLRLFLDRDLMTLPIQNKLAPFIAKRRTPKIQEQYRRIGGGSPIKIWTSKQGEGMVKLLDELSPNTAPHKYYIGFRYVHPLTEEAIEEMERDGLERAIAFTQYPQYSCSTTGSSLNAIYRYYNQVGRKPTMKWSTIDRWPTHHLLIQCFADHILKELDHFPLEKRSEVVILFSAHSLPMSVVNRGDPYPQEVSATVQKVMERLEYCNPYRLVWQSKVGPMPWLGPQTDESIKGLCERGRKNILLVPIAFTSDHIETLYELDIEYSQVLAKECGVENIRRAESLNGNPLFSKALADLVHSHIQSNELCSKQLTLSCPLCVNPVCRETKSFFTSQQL

Test [14] addresses Mitogen-activated protein kinase 8 (Homo sapiens, UniProt P45983).
For test [15], the target named is AP2-associated protein kinase 1 (Homo sapiens, UniProt Q2M2I8).
Also: in the data inactive means no Kd found up to 30 µM.

Chain of 26S proteasome regulatory subunit 6B (P43686 whole entry): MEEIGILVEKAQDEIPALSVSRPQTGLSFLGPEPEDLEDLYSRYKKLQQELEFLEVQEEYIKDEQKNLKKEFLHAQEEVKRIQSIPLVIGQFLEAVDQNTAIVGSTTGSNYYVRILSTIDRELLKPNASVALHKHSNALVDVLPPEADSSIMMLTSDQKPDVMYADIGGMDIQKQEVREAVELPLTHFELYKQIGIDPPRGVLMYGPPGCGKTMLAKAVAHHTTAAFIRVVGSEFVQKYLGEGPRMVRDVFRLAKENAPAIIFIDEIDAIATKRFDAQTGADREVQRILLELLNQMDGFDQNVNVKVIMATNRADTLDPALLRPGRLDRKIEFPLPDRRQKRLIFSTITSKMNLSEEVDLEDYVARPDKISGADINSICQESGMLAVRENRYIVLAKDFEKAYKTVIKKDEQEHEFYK
Chain of Ribosomal protein S6 kinase alpha-1 (Q15418 whole entry): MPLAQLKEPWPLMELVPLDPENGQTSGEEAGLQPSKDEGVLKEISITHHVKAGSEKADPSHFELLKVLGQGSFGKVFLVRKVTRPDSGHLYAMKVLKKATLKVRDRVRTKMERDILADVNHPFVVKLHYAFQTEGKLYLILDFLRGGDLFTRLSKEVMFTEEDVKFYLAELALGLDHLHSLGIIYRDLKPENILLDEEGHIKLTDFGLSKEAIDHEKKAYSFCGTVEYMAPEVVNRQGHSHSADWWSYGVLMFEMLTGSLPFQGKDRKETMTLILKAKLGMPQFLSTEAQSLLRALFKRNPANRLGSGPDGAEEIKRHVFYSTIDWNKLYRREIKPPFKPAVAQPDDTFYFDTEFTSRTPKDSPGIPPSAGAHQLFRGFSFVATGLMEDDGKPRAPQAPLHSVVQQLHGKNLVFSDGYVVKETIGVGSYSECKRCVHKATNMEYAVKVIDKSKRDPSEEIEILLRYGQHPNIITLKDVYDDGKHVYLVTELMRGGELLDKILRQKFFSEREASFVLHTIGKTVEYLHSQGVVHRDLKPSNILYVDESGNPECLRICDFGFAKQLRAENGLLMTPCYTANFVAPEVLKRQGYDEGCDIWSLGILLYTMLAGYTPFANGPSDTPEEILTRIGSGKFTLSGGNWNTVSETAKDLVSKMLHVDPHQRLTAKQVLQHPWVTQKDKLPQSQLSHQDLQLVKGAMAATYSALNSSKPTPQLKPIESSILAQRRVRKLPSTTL
Chain of LIM domain kinase 2 (P53671 whole entry, the tested form may be a part): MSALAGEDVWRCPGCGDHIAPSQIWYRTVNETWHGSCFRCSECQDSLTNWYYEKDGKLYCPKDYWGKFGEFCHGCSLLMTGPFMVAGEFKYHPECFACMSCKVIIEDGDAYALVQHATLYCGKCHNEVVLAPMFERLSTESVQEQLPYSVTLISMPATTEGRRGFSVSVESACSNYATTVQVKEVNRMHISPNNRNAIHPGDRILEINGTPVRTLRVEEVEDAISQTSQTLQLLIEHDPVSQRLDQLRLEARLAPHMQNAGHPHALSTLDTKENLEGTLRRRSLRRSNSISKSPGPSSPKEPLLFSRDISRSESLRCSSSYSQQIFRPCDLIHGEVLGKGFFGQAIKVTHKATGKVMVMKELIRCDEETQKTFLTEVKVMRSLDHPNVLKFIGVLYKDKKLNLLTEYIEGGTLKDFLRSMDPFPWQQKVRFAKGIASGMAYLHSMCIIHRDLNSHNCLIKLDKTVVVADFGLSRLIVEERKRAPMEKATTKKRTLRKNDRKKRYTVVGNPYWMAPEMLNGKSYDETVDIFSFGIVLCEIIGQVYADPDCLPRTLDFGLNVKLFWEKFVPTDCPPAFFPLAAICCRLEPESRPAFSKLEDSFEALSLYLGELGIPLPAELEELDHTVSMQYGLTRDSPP
Chain of Mitogen-activated protein kinase 8 (P45983 whole entry): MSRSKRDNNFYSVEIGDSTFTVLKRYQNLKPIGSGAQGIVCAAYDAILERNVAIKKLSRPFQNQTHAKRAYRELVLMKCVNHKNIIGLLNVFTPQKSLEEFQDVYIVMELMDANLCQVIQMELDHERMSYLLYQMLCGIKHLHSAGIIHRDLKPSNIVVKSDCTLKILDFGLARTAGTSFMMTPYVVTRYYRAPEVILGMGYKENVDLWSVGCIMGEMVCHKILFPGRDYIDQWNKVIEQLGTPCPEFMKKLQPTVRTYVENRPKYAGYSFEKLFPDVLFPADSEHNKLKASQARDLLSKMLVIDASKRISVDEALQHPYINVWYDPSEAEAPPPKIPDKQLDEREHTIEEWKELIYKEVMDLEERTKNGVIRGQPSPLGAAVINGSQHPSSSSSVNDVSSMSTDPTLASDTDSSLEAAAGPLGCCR
Chain of Serine/threonine-protein kinase MRCK beta (Q9Y5S2 whole entry): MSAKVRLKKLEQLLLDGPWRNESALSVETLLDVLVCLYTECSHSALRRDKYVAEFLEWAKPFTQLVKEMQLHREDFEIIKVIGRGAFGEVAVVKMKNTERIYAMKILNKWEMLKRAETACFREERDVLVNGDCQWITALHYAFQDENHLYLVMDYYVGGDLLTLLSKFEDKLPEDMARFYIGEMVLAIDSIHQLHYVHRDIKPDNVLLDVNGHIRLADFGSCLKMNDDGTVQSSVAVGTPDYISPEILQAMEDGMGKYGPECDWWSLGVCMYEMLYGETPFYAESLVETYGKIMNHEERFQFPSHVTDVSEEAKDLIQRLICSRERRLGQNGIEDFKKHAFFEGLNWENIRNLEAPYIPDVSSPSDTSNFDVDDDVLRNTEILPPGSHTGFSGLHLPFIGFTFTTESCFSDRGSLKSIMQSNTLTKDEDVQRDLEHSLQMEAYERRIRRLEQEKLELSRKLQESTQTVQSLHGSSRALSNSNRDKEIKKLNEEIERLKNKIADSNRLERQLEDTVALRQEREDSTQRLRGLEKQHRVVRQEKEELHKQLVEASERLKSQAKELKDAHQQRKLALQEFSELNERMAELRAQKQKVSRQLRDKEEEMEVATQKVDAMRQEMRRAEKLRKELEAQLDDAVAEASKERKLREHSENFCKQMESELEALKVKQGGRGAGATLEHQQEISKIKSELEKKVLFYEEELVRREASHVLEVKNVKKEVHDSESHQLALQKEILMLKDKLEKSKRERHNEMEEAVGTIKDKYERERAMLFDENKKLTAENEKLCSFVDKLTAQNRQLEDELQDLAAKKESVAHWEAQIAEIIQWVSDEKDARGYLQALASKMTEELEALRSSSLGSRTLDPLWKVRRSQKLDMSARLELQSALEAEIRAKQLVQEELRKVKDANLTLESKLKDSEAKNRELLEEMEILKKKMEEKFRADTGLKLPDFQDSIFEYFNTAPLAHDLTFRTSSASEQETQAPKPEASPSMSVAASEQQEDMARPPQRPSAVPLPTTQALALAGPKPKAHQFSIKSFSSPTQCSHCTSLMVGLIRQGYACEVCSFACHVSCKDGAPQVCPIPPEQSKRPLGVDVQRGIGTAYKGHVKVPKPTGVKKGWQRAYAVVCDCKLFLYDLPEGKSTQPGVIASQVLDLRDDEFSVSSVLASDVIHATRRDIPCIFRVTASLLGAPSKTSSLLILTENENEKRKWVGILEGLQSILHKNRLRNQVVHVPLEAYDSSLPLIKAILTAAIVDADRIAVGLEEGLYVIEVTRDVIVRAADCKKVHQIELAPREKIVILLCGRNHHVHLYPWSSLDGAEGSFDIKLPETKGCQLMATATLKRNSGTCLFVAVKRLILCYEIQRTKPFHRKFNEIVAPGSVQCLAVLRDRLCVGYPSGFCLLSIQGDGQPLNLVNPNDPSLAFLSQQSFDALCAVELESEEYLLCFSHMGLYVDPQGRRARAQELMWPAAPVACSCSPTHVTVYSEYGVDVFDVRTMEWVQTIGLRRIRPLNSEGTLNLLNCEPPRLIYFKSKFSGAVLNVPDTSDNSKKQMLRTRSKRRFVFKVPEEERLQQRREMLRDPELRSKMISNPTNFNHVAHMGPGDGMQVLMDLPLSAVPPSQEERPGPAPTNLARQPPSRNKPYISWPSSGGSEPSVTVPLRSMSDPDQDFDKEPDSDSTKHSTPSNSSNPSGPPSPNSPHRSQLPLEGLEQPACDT
Chain of G protein-coupled receptor kinase 6 (P43250 whole entry): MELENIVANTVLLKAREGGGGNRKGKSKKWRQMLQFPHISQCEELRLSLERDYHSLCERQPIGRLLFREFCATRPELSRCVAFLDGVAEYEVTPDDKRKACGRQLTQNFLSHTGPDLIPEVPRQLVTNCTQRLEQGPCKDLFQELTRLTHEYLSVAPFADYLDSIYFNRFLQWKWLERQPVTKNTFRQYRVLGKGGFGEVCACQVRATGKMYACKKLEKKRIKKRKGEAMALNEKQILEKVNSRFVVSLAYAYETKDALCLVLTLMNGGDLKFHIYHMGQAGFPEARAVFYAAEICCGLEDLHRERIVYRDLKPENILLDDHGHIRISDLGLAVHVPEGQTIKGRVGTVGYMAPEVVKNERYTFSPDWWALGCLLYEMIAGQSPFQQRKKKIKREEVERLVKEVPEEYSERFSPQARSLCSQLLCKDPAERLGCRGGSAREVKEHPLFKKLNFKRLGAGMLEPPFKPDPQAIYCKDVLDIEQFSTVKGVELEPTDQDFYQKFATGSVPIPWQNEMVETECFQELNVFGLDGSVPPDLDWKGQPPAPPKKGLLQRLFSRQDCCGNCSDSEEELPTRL
Chain of Guanine nucleotide-binding protein G(i) subunit alpha-2 (P04899 whole entry): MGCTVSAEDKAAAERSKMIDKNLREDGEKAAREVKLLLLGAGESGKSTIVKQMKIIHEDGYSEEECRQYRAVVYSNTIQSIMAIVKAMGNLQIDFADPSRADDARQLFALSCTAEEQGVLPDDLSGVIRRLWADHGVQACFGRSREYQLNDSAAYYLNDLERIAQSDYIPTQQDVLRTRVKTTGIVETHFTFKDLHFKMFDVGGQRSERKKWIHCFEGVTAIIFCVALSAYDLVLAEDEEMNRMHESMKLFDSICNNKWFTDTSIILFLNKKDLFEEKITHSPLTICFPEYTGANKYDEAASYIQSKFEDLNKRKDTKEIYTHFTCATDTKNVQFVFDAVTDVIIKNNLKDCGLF

In the case of `CNC(=O)c1cccc2cc(Oc3ccnc4cc(OCC5(N)CC5)c(OC)cc34)ccc12` [LUCITANIB], the Kd (commonly the concentration at which binding is half-saturated) in test [1] was > 30 µM (inactive); in test [2], > 30 µM (inactive); in [3], > 30 µM (inactive); on Aurora kinase B it was 22.9 µM (active); in test [4], > 30 µM (inactive); in test [5] it was > 30 µM (inactive). Besides, the Kd (in [6]; at Actin-related protein 2; in test [7]; in test [8]; in test [9]; in test [10]) was > 30 µM (inactive) each time. Besides, the Kd (in test [11]; in test [12]; in test [13]; in [14]; in test [15]; on LIM domain kinase 2) was > 30 µM (inactive) throughout.
Regarding `Cn1cc(-c2cnc3ccc4ccc(CS(=O)(=O)NCc5ccccn5)cc4c(=O)c3c2)cn1` [MK-8033], the Kd (in test [1]; in test [2]; in [3]; at Aurora kinase B; in [4]; in test [5]) was > 30 µM (inactive) each time. Further, the Kd (in [6]; at Actin-related protein 2; in test [7]; in test [8]; in test [9]; in test [10]) was > 30 µM (inactive) each time. The Kd in test [11] was > 30 µM (inactive); in test [12], > 30 µM (inactive); in test [13] it was 32.6 µM (active); in test [14] it was > 30 µM (inactive); in test [15], > 30 µM (inactive); on LIM domain kinase 2 it was > 30 µM (inactive).
As for `FC(F)(F)c1ccc(/C=C/c2nc(COc3ccc(CCCCn4ccnn4)cc3)co2)cc1` [MUBRITINIB], the Kd (in [1]; in test [2]; in test [3]; on Aurora kinase B; in test [4]; in [5]) was > 30 µM (inactive) in each case. Besides, the Kd (in test [6]; at Actin-related protein 2; in [7]; in [8]; in [9]; in test [10]) was > 30 µM (inactive) in each case. The Kd (in test [11]; in test [12]; in test [13]; in test [14]; in test [15]; on LIM domain kinase 2) was > 30 µM (inactive) throughout.
On to `Cc1cnc(NC(=O)Nc2cc(Br)c(C)cc2OC[C@@H]2CNCCO2)cn1` [RABUSERTIB], for which the Kd (in test [1]; in test [2]; in [3]; at Aurora kinase B; in test [4]; in test [5]) was > 30 µM (inactive) each time. Moreover, the Kd (in test [6]; at Actin-related protein 2; in test [7]; in test [8]; in test [9]; in [10]) was > 30 µM (inactive) each time. The Kd is > 30 µM (inactive) in test [11]; > 30 µM (inactive) in [12]; 3.82 µM in test [13]; > 30 µM (inactive) in [14]; > 30 µM (inactive) in test [15]; > 30 µM (inactive) at LIM domain kinase 2.
As for `CO[C@H]1C[C@@H]2CC[C@@H](C)[C@@](O)(O2)C(=O)C(=O)N2CCCC[C@H]2C(=O)O[C@H]([C@H](C)C[C@@H]2CC[C@@H](OP(C)(C)=O)[C@H](OC)C2)CC(=O)[C@H](C)/C=C(\C)[C@@H](O)[C@@H](OC)C(=O)[C@H](C)C[C@H](C)/C=C/C=C/C=C/1C` [RIDAFOROLIMUS], the Kd (in test [1]; in test [2]; in test [3]; on Aurora kinase B; in test [4]; in test [5]) was > 30 µM (inactive) in each case. Further, the Kd (in test [6]; on Actin-related protein 2; in test [7]; in test [8]; in test [9]; in test [10]) was > 30 µM (inactive) throughout. Further, the Kd (in test [11]; in test [12]; in [13]; in test [14]; in test [15]; at LIM domain kinase 2) was > 30 µM (inactive) each time.
For the molecule `CO[C@H]1C[C@@H]2CC[C@@H](C)[C@@](O)(O2)C(=O)C(=O)N2CCCC[C@H]2C(=O)O[C@H]([C@H](C)C[C@@H]2CC[C@@H](OC(=O)C(C)(CO)CO)[C@H](OC)C2)CC(=O)[C@H](C)/C=C(\C)[C@@H](O)[C@@H](OC)C(=O)[C@H](C)C[C@H](C)/C=C/C=C/C=C/1C` [TEMSIROLIMUS], the Kd (in [1]; in test [2]; in test [3]; on Aurora kinase B; in test [4]; in [5]) was > 30 µM (inactive) throughout. Also, the Kd (in test [6]; on Actin-related protein 2; in [7]; in [8]; in test [9]; in [10]) was > 30 µM (inactive) each time. The Kd (in [11]; in test [12]; in test [13]; in test [14]; in [15]; on LIM domain kinase 2) was > 30 µM (inactive) in each case.
Take `COc1cc2c(Nc3ccc(Cl)c(Cl)c3F)ncnc2cc1OC[C@@H]1C[C@@H]2CN(C)C[C@@H]2C1` [TESEVATINIB]: the Kd (in test [1]; in test [2]; in [3]; at Aurora kinase B; in test [4]; in test [5]) was > 30 µM (inactive) in each case. The Kd was > 30 µM (inactive) in [6]; > 30 µM (inactive) at Actin-related protein 2; > 30 µM (inactive) in test [7]; > 30 µM (inactive) in [8]; > 30 µM (inactive) in test [9]; 0.921 µM (active) in test [10]. In addition, the Kd (in [11]; in test [12]; in [13]; in test [14]; in test [15]; on LIM domain kinase 2) was > 30 µM (inactive) each time.
